Test results reported in patent US5972953A, “Brain cell protective agent” (priority 1993, dated 1999).

How the values were obtained:
[1] = tested on: nerve cells in the CAl region of the hippocampus; assay: Protective action from delayed neuronal death (bilateral carotid ligation ischemia, residual hippocampal nerve cells); type: in vivo, mongolian jerbils; conditions: for inhibition of defluxion of brain nerve cells caused by ischemia: conclusion from Table 2
Description: Those compounds that provide protection from and suppress delayed neuronal death described in Example 18 are considered to be promising as preventive and therapeutic agents for ischemic brain disorders, brain nerve cell disorders and dementia, which are problems that the present invention is attempting to solve. The pharmacological activity of the compounds of the present invention was evaluated in the manner below using jerbils for the animal model.
A midline incision was made in mongolian having body weights of 50-70 g under ether anesthesia. Blood flow through the carotid arteries on both sides was interrupted to create an ischemic state by ligating the vessels for 5 minutes. The test compound was administered subcutaneously either 30 minutes or 1 hour prior to ligation ischemia, and the rectal temperature of the animals was controlled to 37±2° C. using a heating pad or heater starting 5 minutes before to 30 minutes after ligation ischemia. 1 week after ligation, 4% neutral buffered formalin was perfused from the heart throughout the body followed by extraction of the brain. After post-fixing the extracted brain in the same solution, the tissue was prepared into sections after embedding in paraffin. The sections were stained with hematoxylin and eosin, and the number of nerve cells in the CAl region of the hippocampus over a width of 1 mm to the left and right was counted. The total number of nerve cells on the right and left sides was then used for evaluation.

[2] = tested on: cultured nerve cells (cerebral cortex); assay: cells; type: cell-based, Wistar rat; conditions: Rattus norvegicus, Cerebral cortex neuron; 10 mM glutamate, 24 hours at 37° C., LDH leakage; read-out: ED50 (the source's name)

SMILES	inhibition of defluxion of brain nerve cells caused by ischemia [1]	No. of Residual Nerve Cells ([1]; 3 mg/kg s.c., 30 minutes before ischemia, 1 week after 5 min ligation)	EC50 [2] [µM]
CN(C(=O)CCCCCc1ccccc1)[C@H]1CC[C@@]2(O)[C@H]3Cc4ccc(O)c5c4[C@@]2(CCN3CC2CC2)[C@H]1O5 [Compound 34, 17-cyclopropylmethyl-3,14β-dihydroxy-4,5α-epoxy-6α-(N-methyl-6-phenylhexanoamido)morphinan]	significantly inhibited defluxion of brain nerve cells caused by ischemia		
CC(C)CN(C(=O)Cc1ccc(Cl)c(Cl)c1)[C@H]1CC[C@@]2(O)[C@H]3Cc4ccc(O)c5c4[C@@]2(CCN3CC2CC2)[C@H]1O5 [Compound 35, 17-cyclopropylmethyl-3,14β-dihydroxy-4,5α-epoxy-6α-(N-isobutyl-3,4-dichlorophenylacetoamido)morphinan]	significantly inhibited defluxion of brain nerve cells caused by ischemia	203.1 ± 40.1	
CN(C(=O)/C=C/c1cccc(C(F)(F)F)c1)[C@@H]1CC[C@@]2(O)[C@H]3Cc4ccc(O)c5c4[C@@]2(CCN3CC2CC2)[C@H]1O5 [Compound 42, 17-cyclopropylmethyl-3,14β-dihydroxy-4,5α-epoxy-6β-(N-methyl-3-trifluoromethylcinnamamido)morphinan]	significantly inhibited defluxion of brain nerve cells caused by ischemia		1.8
Cc1cccc(/C=C/C(=O)N(C)[C@@H]2CC[C@@]3(O)[C@H]4Cc5ccc(O)c6c5[C@@]3(CCN4CC3CC3)[C@H]2O6)c1 [Compound 46, 17-cyclopropylmethyl-3,14β-dihydroxy-4,5α-epoxy-6β-(N-methyl-3-methylcinnamamido) morphinan]	significantly inhibited defluxion of brain nerve cells caused by ischemia		4.42
CN(C(=O)/C=C/c1cccc([N+](=O)[O-])c1)[C@@H]1CC[C@@]2(O)[C@H]3Cc4ccc(O)c5c4[C@@]2(CCN3CC2CC2)[C@H]1O5 [Compound 78, 17-cyclopropylmethyl-3,14β-dihydroxy-4,5α-epoxy-6β-(N-methyl-3-nitrocinnamamido)morphinan]	significantly inhibited defluxion of brain nerve cells caused by ischemia		
